{
  "source": "patent US20210386722A1",
  "about": "“Treatment of Covid-19 with Nitroxides” (priority 2021, published 2021)",
  "key": {"SARS-COV-2 [1]": {"system": "SARS-COV-2", "conditions": "in vivo; cited from earlier work"}, "[2]": {"target": "T1, SARS-COV-2 replicase (RNA-Dependent RNA polymerase) (Severe acute respiratory syndrome coronavirus 2, UniProt P0DTD1)", "T1 construct": "SARS-COV-2 replicase (RNA-Dependent RNA polymerase)", "conditions": "by oxidizing iron-sulfur centers; cited from earlier work"}, "SARS-COV-2 [3]": {"system": "SARS-COV-2", "conditions": "potentially physiological Tempol concentrations; cited from earlier work"}, "SARS-COV-2 [4]": {"system": "SARS-COV-2", "test": "Treatment of a patient with presumptive Covid-19 (case report)", "format": "in vivo, human", "excerpt": "A septuagenarian person experienced sudden frightening onset of severe headache, marked nausea and vomiting, pharyngitis, severe upper respiratory congestion, fever, chills, myalgia, weakness, malaise, and mild to moderate pulmonary congestion. O2 saturation=96%. Patient had been taking Tempol off-and-on for years for cancer prophylaxis and for its possible antiaging activity, as well as some miscellaneous actions such as treatment of periodontitis and osteoarthritis. But, concerned that it would interfere with their activity, they had stopped Tempol about 6 weeks before receiving influenza (Fluvax) and Zoster (Zostavax) immunizations. The presumptive-diagnosis was “Covid-19”, possibly from a medically-related exposure.\nTreatment: Nausea and vomiting continued without respite for several hours. Anti-nausea tablets were twice regurgitated intact. Accordingly, treatment was initiated with 30 mg of Tempol PO as the hydroxylamine in a 6% water solution containing 90 mg vitamin-C. Patient kept this down. Along with Tempol-zinc gargles for pharyngitis, intranasal treatment was then initiated with a medication-soaked cotton swab and insufflation, repeated approximately q 6 h as symptoms returned. This was followed by similar doses of Tempol-H three and six hours later, repeated 2-3 times a day, PO for the next ten days. Subsequent intranasal treatment was also repeated 1-3 times a day for 10 days, as needed, titrating to relief of oropharyngeal symptoms as they recurred. On days 2-3, treatment was briefly initiated with hydroxychloroquine, zinc, doxycycline, ivermectin, and famotidine, then withdrawn."}, "[5]": {"system": "nonrespiratory coronavirus", "conditions": "mouse, in vivo; cited from earlier work"}, "SARS-COV-2 [6]": {"system": "SARS-COV-2", "test": "Person on Tempol heavily exposed to patient 1", "format": "in vivo, human", "conditions": "Tempol 60 mg/day", "excerpt": "By days 5-7 remaining symptoms were mild reversible-on-treatment nasal congestion, pharyngitis, and malaise. […] PCR for SARS-COV-2 RNA was negative at day 10. While not surprising considering the clinical course, in retrospect, this may have signified some direct antiviral effect of the application of Tempol directly to the upper respiratory mucosa and oropharynx by insufflation, inhalation, or gargling. […] After patient discontinued treatment for several weeks, subsequent putative recurrent post-acute symptoms of Covid-19 such as malaise, myalgia, and shortness of breath appeared."}},
  "data": [
    {"smiles": "CCC(CC)COC(=O)[C@H](C)N[P@](=O)(OC[C@H]1O[C@@](C#N)(c2ccc3c(N)ncnn23)[C@H](O)[C@@H]1O)Oc1ccccc1", "note": "[Remdisivir]", "values": [
      {"measurement": "efficacy of systemic treatment of Covid-19", "setting": "SARS-COV-2 [1]", "result": "ineffective or only marginally-effective"}
    ]},
    {"smiles": "CC1(C)CC(O)CC(C)(C)N1[O]", "note": "[Tempol, 4-hydroxy-TEMPO]", "values": [
      {"measurement": "effect on replicase enzyme", "setting": "[2]", "result": "inactivates this key enzyme"},
      {"measurement": "viral replication in vitro", "setting": "SARS-COV-2 [3]", "result": "markedly inhibits viral replication"},
      {"measurement": "PCR for SARS-COV-2 RNA", "setting": "SARS-COV-2 [4]; day 10", "result": "negative"},
      {"measurement": "overall symptoms", "setting": "SARS-COV-2 [4]; days 8-9, excepting slight malaise", "result": "essentially asymptomatic"},
      {"measurement": "recurrent post-acute symptoms of Covid-19 (malaise, myalgia, shortness of breath)", "setting": "SARS-COV-2 [4]; further treatment as above plus lung inhalation of 0.1 ml of 6% Tempol or Tempol-H solution", "result": "responded reversibly"},
      {"measurement": "efficacy of Tempol itself (non-reduced form)", "setting": "SARS-COV-2 [4]; same doses as Tempol-H", "result": "effective at the same doses"},
      {"measurement": "murine viral encephalomyelitis", "setting": "[5]", "result": "ameliorates"},
      {"measurement": "development of coronavirus disease after heavy exposure", "setting": "SARS-COV-2 [6]", "result": "did not develop clinically-significant coronavirus disease"}
    ]},
    {"smiles": "CC1(C)CC(O)CC(C)(C)N1O", "note": "[Tempol-H]", "values": [
      {"measurement": "pulmonary congestion", "setting": "SARS-COV-2 [4]; after initiation of treatment", "result": "cleared somewhat"},
      {"measurement": "nasal congestion", "setting": "SARS-COV-2 [4]; repeated intranasal treatment (soaked cotton swab and insufflation)", "result": "quickly reversibly-eased"},
      {"measurement": "events experienced by the patient during treatment", "setting": "SARS-COV-2 [4]; that night and several subsequent ones", "result": "“vivid dreaming”"},
      {"measurement": "headache", "setting": "SARS-COV-2 [4]; within one to two hours of initiation of treatment", "result": "eased significantly"}
    ]},
    {"smiles": "CCN(CCO)CCCC(C)Nc1ccnc2cc(Cl)ccc12", "note": "(centres unmarked) [hydroxychloroquine]", "values": [
      {"measurement": "efficacy of systemic treatment of Covid-19", "setting": "SARS-COV-2 [1]", "result": "ineffective or only marginally-effective"}
    ]}
  ]
}
